As usually defined, the IC50 is the midpoint of a concentration-inhibition curve. What is called CC50 is the concentration at which the toxic effect on the cells reaches its halfway point. Low values mean greater toxicity to the cells, high ones lower toxicity to the cells.

The structures appear in SMILES notation. Converted amounts (≈) assume the structure as drawn. Bounds are passed on as bounds.

The results in this text go back to ChEMBL document CHEMBL1151552, “Inhibitory activities of herpes simplex viruses type 1 and 2 and human cytomegalovirus by stereoisomers of 2-deoxy-3-oxa-5(E)-(2-bromovinyl)uridines and their 4-thio analogues” (Bioorg Med Chem Lett, 1994).

In data set [1] the test system is Vero. Put plainly: Inhibitory activity against Herpes Simplex virus type 1 (KOS strain) in a Plaque reduction Assay in vero cells. The settings on record: Chlorocebus sabaeus. Format: functional, cell-based. (In general: Plaques are areas of infected cells; plaque reduction assays count them against a control.)
The test system of data set [2] is F2002 cell line. Put plainly: Inhibitory activity against human cytomegalo virus (WFI strain) in a plaque reduction assay in flow 2002 human fibroblast cells. Format: functional, cell-based.
Data set [3] deals with Vero. Put plainly: Cytotoxicity in Vero cell line. Format: functional. The settings on record: Chlorocebus sabaeus.
Data set [4] deals with Vero. Put plainly: Inhibitory activity against Herpes Simplex virus type 1 (186 strain) in a Plaque reduction Assay in vero cells. The data set is classed as functional, cell-based. The settings on record: Chlorocebus sabaeus.
A short description of data set [5]: Cytotoxicity in Flow 2002 cell line. The data set is classed as cell-based. The settings on record: human, Flow 2002 cells.

Regarding `O=c1[nH]c(=O)n([C@H]2CO[C@H](CO)O2)cc1/C=C/Br`, the figures for the IC50 in data set [1], in data set [2] and in data set [4] were 3.4 µg/mL (≈ 10.7 µM), more than 30 µg/mL and more than 30 µg/mL, respectively. In addition, the CC50 in data set [3] turned out to be 100 µg/mL (≈ 313 µM); in data set [5] it was 30 µg/mL (≈ 94 µM).

For `O=c1[nH]c(=O)n([C@H]2CO[C@H](CO)S2)cc1/C=C/Br`, the half-maximal inhibitory concentration (IC50) in data set [1] was more than 30 µg/mL; in data set [2], more than 100 µg/mL; in data set [4], 30 µg/mL (≈ 89.5 µM). Moreover, the figures for the CC50 in data set [3] and in data set [5] were 100 µg/mL (≈ 298 µM) and more than 100 µg/mL, respectively.

On to `O=c1[nH]c(=O)n([C@@H]2CO[C@@H](CO)S2)cc1/C=C/Br`, for which the results for the IC50 in data set [1], in data set [2] and in data set [4] were more than 10 µg/mL, 80 µg/mL (≈ 239 µM) and more than 10 µg/mL, respectively. Also, the CC50 in data set [3] amounted to 30 µg/mL (≈ 89.5 µM); in data set [5], 100 µg/mL (≈ 298 µM).

In the case of `O=c1[nH]c(=O)n([C@@H]2CO[C@@H](CO)O2)cc1/C=C/Br`, the IC50 was more than 30 µg/mL in data set [1], 25 µg/mL (≈ 78.3 µM) in data set [2] and more than 30 µg/mL in data set [4]. Moreover, the CC50 in data set [3] and in data set [5] was 100 µg/mL (≈ 313 µM) each time.

`O=c1[nH]c(=O)n([C@H]2CO[C@@H](CO)S2)cc1/C=C/Br`: the IC50 in data set [1] is more than 30 µg/mL; in data set [2], more than 100 µg/mL; in data set [4], 2.9 µg/mL (≈ 8.65 µM). In addition, the CC50 in data set [3] and in data set [5] was 100 µg/mL (≈ 298 µM) throughout.

`O=c1[nH]c(=O)n([C@@H]2CO[C@H](CO)S2)cc1/C=C/Br`: the concentration for half-maximal inhibition (IC50) in data set [1], in data set [2] and in data set [4] was more than 100 µg/mL each time. Further, the 50% cytotoxic concentration (CC50) in data set [3] was more than 100 µg/mL; in data set [5] it was 100 µg/mL (≈ 298 µM).

In the case of `O=c1[nH]c(=O)n([C@H]2CO[C@@H](CO)O2)cc1/C=C/Br`, the IC50 in data set [1] was more than 30 µg/mL; in data set [2], more than 100 µg/mL; in data set [4], more than 30 µg/mL. The results for the CC50 in data set [3] and in data set [5] were 100 µg/mL (≈ 313 µM) and more than 100 µg/mL, respectively.

As to `O=c1[nH]c(=O)n([C@@H]2CO[C@H](CO)O2)cc1/C=C/Br`, the IC50 was 0.3 µg/mL (≈ 0.94 µM) in data set [1], 5 µg/mL (≈ 15.7 µM) in data set [2] and more than 30 µg/mL in data set [4]. In addition, the 50% cytotoxic concentration (CC50) in data set [3] was 100 µg/mL (≈ 313 µM); in data set [5], 30 µg/mL (≈ 94 µM).

For `Nc1nc2c(ncn2COC(CO)CO)c(=O)[nH]1` [GANCICLOVIR], the midpoint of inhibition in data set [2], the IC50, lay at 0.1 µg/mL (≈ 0.392 µM). Moreover, the 50% cytotoxic concentration (CC50) in data set [5] was more than 100 µg/mL.

On to `Nc1nc2c(ncn2COCCO)c(=O)[nH]1` [ACYCLOVIR], for which the IC50 came to 0.1 µg/mL (≈ 0.444 µM) in data set [1] and 0.5 µg/mL (≈ 2.22 µM) in data set [4]. For the same compound, the cytotoxic concentration (CC50) in data set [3] is more than 10 µg/mL.
